Values quoted from earlier work as cited in patent US8440844B2, “Process for the preparation of β-amino alcohol” (Council of Scientific & Industrial Research, priority 2011, dated 2013).

How the values were obtained:
[1] = system: β-amyloid (Aβ) production; details: background statement
γ-secretase = details: Notch-1-sparing γ-secretase inhibitor; background statement, no method given

**Q.** For `CCC(CC)[C@@H](CO)NS(=O)(=O)c1ccc(Cl)s1` [(S)—N-(5-chlorothiophene-2-sulfonyl)-β,β-diethylalaninol], which “reduction of Aβ production in vivo” value [1] is on record?
**A.** The value was “effective in reduction of Aβ production in vivo”.

**Q.** What about the EC50 (γ-secretase) of the same compound?
**A.** The EC50 was 0.028 µM.
